From patent US20230382924A1, “MODULATORS OF CYSTIC FIBROSIS TRANSMEMBRANE CONDUCTANCE REGULATOR” (VERTEX PHARMACEUTICALS INCORPORATED, priority 2020, published 2023)
pEC50: −log10 of the molar value. Where two headings read alike, the source gives them in different places. One block for each compound: values may come before it.

Tests used:
[1] = target: T1, CFTR (Homo sapiens, UniProt P13569); assay: Membrane Potential Dye, Enteroid Assay B; type: cell-based; conditions: Table 9
Procedure, shortened: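 Enteroid cells loaded 25 min at room temperature with 20 μM methyl oxonol plus 30 μM CaCCinh-A01 and 30 μM Chicago Sky Blue, then switched to chloride-free gluconate buffer. Chloride transport was started by chloride-free stimulation solution, with fluorescence read for 15 min.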

[2] = amide bond, 13-membered ring, DMF, 25.0 °C
[3] = target: T2, CFTR (Homo sapiens, UniProt P13569, DEL508-508); assay: HBE assay: Ussing chamber assay of CFTR-mediated short-circuit currents in F508del/MF-HBE cells; type: cell-based; conditions: 20% human serum; for HBE Activity at 10 μM (%): single fixed concentration of 10 μM with 1 μM Ivacaftor; for HBE Activity at 10 μM (%) / Emax: 18-24 hours, compared to known Vertex corrector with 18 μM Tezacaftor and 1 μM Ivacaftor; for pEC50: range of concentrations in combination with 1 μM Ivacaftor, 18-24 hours at 37° C.; for Emax: with 1 μM Ivacaftor, read-out: HBE Max Activity (%)
T2 construct: endogenous in cells; host or cells: primary human bronchial epithelial cells from CF subjects (F508del/MF)
Method: 1. Ussing Chamber Assay of CFTR-Mediated Short-Circuit Currents
Ussing chamber experiments were performed using human bronchial epithelial (HBE) cells derived from CF subjects heterozygous for F508del and a minimal function CFTR mutation (F508del/MF-HBE) and cultured as previously described (Neuberger T, Burton B, Clark H, Van Goor F Methods Mol Biol 2011:741:39-54). After four days the apical media was removed, and the cells were grown at an air liquid interface for >14 days prior to use.
To isolate the CFTR-mediated short-circuit (Isc) current, F508del/MF-HBE grown on Costar® Snapwell™ cell culture inserts were mounted in an Ussing chamber and the transepithelial Isc was measured under voltage-clamp recording conditions (Vhold=0 mV) at 37° C. The basolateral solution contained (in mM) 145 NaCl, 0.83 K2HPO4, 3.3 KH2P04, 1.2 MgCl2, 1.2 CaCl2), 10 Glucose, 10 HEPES (pH adjusted to 7.4 with NaOH) and the apical solution contained (in mM) 145 NaGluconate, 1.2 MgCl2, 1.2 CaCl2), 10 glucose, 10 HEPES (pH adjusted to 7.4 with NaOH) and 30 μM amiloride to block the epithelial sodium channel. Forskolin (20 μM) was added to the apical surface to activate CFTR, followed by apical addition of a CFTR inhibitor cocktail consisting of BPO, GlyH-101, and CFTR inhibitor 172 (each at 20 μM final assay concentration) to specifically isolate CFTR currents. The CFTR-mediated Isc (ρA/cm^2) for each condition was determined from the peak forskolin response to the steady-state current following inhibition.
2. Identification of Corrector Compounds
The activity of the CFTR corrector compounds on the CFTR-mediated Isc was determined in Ussing chamber studies as described above. The F508del/MF-HBE cell cultures were either incubated with the corrector compounds at a range of concentrations in combination with 1 μM Ivacaftor or were incubated with the corrector compounds at a single fixed concentration of 10 μM in combination with 1 μM Ivacaftor for 18-24 hours at 37° C. and in the presence of 20% human serum. The concentration of corrector compounds with 1 μM Ivacaftor during the 18-24 hours incubations was kept constant throughout the Ussing chamber measurement of the CFTR-mediated Isc to ensure compounds were present throughout the entire experiment.

[4] = target: T1, CFTR; assay: Membrane Potential Dye, Enteroid Assay A; type: cell-based; conditions: for pEC50: read-out: Ent. A EC50
Procedure, shortened: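 Signal is reported as % Activity relative to a triple CFTR modulator control (3 μM + 3 μM + 300 nM acute). Read-out: membrane potential fluorescence (20 μM methyl oxonol) monitored for 15 min after chloride-free stimulation. Dye loading took 25 min at room temperature in Bath 1 buffer containing CaCC blockers.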

T2 sequence (P13569 with tags, fused parts or gaps DEL508-508): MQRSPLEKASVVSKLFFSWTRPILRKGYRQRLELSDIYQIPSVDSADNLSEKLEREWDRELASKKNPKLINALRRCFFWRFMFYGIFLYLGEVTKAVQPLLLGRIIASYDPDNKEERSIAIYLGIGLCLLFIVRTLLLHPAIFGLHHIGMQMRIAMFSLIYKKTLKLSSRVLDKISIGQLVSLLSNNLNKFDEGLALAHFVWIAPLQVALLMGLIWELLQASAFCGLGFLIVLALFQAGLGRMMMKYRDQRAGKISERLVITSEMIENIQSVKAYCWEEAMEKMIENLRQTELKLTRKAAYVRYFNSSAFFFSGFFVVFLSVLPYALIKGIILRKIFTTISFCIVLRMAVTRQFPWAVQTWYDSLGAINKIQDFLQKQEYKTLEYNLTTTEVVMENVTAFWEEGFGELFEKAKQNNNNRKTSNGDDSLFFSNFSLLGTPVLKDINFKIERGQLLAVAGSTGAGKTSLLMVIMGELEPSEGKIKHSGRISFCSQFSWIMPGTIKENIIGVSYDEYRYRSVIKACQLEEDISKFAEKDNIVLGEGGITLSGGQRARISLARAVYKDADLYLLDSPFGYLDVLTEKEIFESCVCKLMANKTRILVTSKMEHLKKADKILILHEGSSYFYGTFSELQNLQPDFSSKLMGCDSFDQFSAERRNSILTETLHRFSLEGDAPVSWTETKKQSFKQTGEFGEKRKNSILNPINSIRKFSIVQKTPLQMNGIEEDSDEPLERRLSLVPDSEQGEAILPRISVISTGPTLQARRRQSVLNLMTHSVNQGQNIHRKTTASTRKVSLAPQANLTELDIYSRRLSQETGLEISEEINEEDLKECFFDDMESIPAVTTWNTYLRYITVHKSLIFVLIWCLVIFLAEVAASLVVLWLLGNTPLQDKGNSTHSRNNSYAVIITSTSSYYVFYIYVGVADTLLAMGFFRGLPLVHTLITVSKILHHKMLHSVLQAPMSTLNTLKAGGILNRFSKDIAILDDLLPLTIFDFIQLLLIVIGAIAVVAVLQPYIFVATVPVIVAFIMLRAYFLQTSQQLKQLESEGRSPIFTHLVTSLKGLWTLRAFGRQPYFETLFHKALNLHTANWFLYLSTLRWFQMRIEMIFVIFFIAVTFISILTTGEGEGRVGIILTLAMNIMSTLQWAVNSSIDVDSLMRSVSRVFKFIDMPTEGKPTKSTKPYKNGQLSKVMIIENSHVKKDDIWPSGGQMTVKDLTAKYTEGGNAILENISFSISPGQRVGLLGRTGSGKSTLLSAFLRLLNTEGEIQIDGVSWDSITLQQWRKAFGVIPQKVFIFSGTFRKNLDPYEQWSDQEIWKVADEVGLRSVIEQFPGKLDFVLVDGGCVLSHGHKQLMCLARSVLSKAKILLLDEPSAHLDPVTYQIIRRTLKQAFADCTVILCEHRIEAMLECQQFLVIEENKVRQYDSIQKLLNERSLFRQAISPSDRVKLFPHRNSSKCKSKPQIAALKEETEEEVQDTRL
T1 sequence (P13569 with tags, fused parts or gaps DEL508-508): as above

Compound: CC(C)C[C@@H]1COc2cc(Cl)nc(n2)NS(=O)(=O)c2cccc(c2)C(=O)N1
- ring closure, isolated yield (from CC(C)C[C@@H](N)COc1cc(Cl)nc(NS(=O)(=O)c2cccc(C(=O)O)c2)n1, amide bond, 13-membered ring, HATU/Et3N, DMF, 29.1 mM, -5.0 °C, 0.17 h): 30%

Compound: COCN1c2nc3cc(n2)-c2ccccc2/C=C/CCCCCC[C@H](CO3)NC(=O)c2cccc(c2)S1(=O)=O
- ring closure, isolated yield (from C=CCCCCCC[C@@H]1COc2cc(-c3ccccc3C=C)nc(n2)N(COC)S(=O)(=O)c2cccc(c2)C(=O)N1, rcm bond, 16-membered ring, Grubbs II, toluene, 16.4 mM, 100.0 °C, 1.5 h): 80%

Compound: Cc1cccc(C)c1-c1cc2nc(n1)NS(=O)(=O)c1cccc(c1)C(=O)NCC(c1ccc(C3(C(F)(F)F)CC3)cc1)O2 (stereo not drawn)
- ring closure, isolated yield (from Cc1cccc(C)c1-c1cc(OC(CN)c2ccc(C3(C(F)(F)F)CC3)cc2)nc(NS(=O)(=O)c2cccc(C(=O)O)c2)n1, amide bond, 13-membered ring, HATU/NaOtBu, THF/DMF, 67.1 mM, 25.0 °C, 0.75 h, 2 steps): 26%

Compound: O=S1(=O)Nc2nc(Cl)cc(n2)-c2ccccc2CCCNc2cccc1c2
- ring closure, isolated yield (from CC1(C)OB(c2ccccc2CCCNc2cccc(S(=O)(=O)Nc3nc(Cl)cc(Cl)n3)c2)OC1(C)C, cc_pd bond, 14-membered ring, Pd(PPh3)4/K2CO3, 1,4-dioxane/water, 11.2 mM, 90.0 °C, 5.0 h): 19%

Compound: C=CCCCCCC[C@@H]1COc2cc(-c3ccccc3C=C)nc(n2)NS(=O)(=O)c2cccc(c2)C(=O)N1 [Compound 35, (11R)-11-Oct-7-enyl-2,2-dioxo-6-(2-vinylphenyl)-9-oxa-2λ^6-thia-3,5,12,19-tetrazatricyclo[12.3.1.14,8]nonadeca-1(18),4,6,8(19),14,16-hexaen-13-one]
- ring closure, isolated yield (from C=CCCCCCC[C@@H](N)COc1cc(-c2ccccc2C=C)nc(NS(=O)(=O)c2cccc(C(=O)O)c2)n1, amide bond, 13-membered ring, HATU/NaOtBu, DMF/THF, 19.4 mM, 0.0 °C, 0.67 h, 2 steps): 35%
- Ent. B Max Activity [1]: ++ (++ is 30-60%)
- pEC50 ([1]; read-out: Ent. B EC50): > 6.00

Compound: Cc1ccc2ccccc2c1-c1cc2nc(n1)NS(=O)(=O)c1cccc(c1)C(=O)N[C@H](CC(C)(C)C)CO2 [Compound 52, (11R)-11-(2,2-Dimethylpropyl)-6-(2-methyl-1-naphthyl)-2,2-dioxo-9-oxa-2λ^6-thia-3,5,12,19-tetrazatricyclo[12.3.1.14,8]nonadeca-1(18),4(19),5,7,14,16-hexaen-13-one]
- ring closure, yield after HPLC ([2]; from Cc1ccc2ccccc2c1-c1cc(OC[C@H](N)CC(C)(C)C)nc(NS(=O)(=O)c2cccc(C(=O)O)c2)n1, HATU/TEA, 44.8 mM, 2.0 h): 25%
- pEC50 [3]: > 6.00
- Emax [3]: > 60%

Compound: Cc1cccc(C)c1-c1cc2nc(n1)NS(=O)(=O)c1cccc(c1)C(=O)NC(C(CC(C)C)c1ccc(C(C)(C)C)cc1)CO2 (stereo not drawn) [Compound 207]
- HBE Activity at 10 μM (%) [3]: + (+ is <30%)

Compound: Cc1cccc(C)c1-c1cc2nc(n1)NS(=O)(=O)c1cccc(c1)C(=O)NC(C(CC(C)C)c1ccc(C(C)(C)C)cc1)CO2 (stereo not drawn) [Compound 208]
- HBE Activity at 10 μM (%) [3]: +++ (+++ is >60%)

More lines, main results first:

- HBE Activity at 10 μM (%) [3]: +++ (+++ is >60%)
Compound: Cc1cccc(C)c1-c1cc2nc(n1)NS(=O)(=O)c1cccc(c1)C(=O)N[C@H](CC1CC3(CCC3)C1)CO2 [Compound 49, (11R)-6-(2,6-Dimethylphenyl)-2,2-dioxo-11-(spiro[3.3]heptan-2-ylmethyl)-9-oxa-2λ^6-thia-3,5,12,19-tetrazatricyclo[12.3.1.14,8]nonadeca-1(18),4(19),5,7,14,16-hexaen-13-one]
- ring closure, yield after HPLC ([2]; from Cc1cccc(C)c1-c1cc(OC[C@H](N)CC2CC3(CCC3)C2)nc(NS(=O)(=O)c2cccc(C(=O)O)c2)n1, CDMT/NMM, 32.4 mM, 1.5 h): 49%

- pEC50 [3]: > 6.00
- Emax [3]: > 60%
Compound: Cc1cccc(C)c1-c1cc2nc(n1)NS(=O)(=O)c1cccc(c1)C(=O)NC(C1CC3(CCC3)C1)CO2 (stereo not drawn) [Compound 50, 6-(2,6-Dimethylphenyl)-2,2-dioxo-11-spiro[3.3]heptan-2-yl-9-oxa-2λ^6-thia-3,5,12,19-tetrazatricyclo[12.3.1.14,8]nonadeca-1(18),4(19),5,7,14,16-hexaen-13-one]
- ring closure, yield after HPLC ([2]; from Cc1cccc(C)c1-c1cc(OCC(N)C2CC3(CCC3)C2)nc(NS(=O)(=O)c2cccc(C(=O)O)c2)n1, CDMT/NMM, 46.6 mM, 1.5 h): 25%

- pEC50 [3]: > 6.00
- Emax [3]: > 60%
Compound: Cc1ccc(C)c(-c2cc3nc(n2)NS(=O)(=O)c2cccc(c2)C(=O)N[C@H](CC(C)(C)C)CO3)c1C [Compound 51, (11R)-11-(2,2-Dimethylpropyl)-6-(2,3,6-trimethylphenyl)-9-oxa-2λ^6-thia-3,5,12,19-tetraazatricyclo[12.3.1.14,8]nonadeca-1(18),4,6,8(19),14,16-hexaene-2,2,13-trione]
- ring closure, yield after HPLC ([2]; from Cc1ccc(C)c(-c2cc(OC[C@H](N)CC(C)(C)C)nc(NS(=O)(=O)c3cccc(C(=O)O)c3)n2)c1C, CDMT/NMM, 23.7 mM, 16.0 h): 31%

- Ent. A Max Activity ([4]; Table 9): +++ (+++ is >60%)
- pEC50 ([4]; Table 9): > 6.00
Compound: Cc1cccc(C)c1-c1cc2nc(n1)NS(=O)(=O)c1cccc(c1)C(=O)N[C@@H]1CN(C(=O)OC(C)(C)C)CC[C@H]1O2 [Compound 59, tert-Butyl (3R,8R)-20-(2,6-dimethylphenyl)-10,16,16-trioxo-2-oxa-16λ^6-thia-6,9,17,19,22-pentaazatetracyclo[16.3.1.111,15.03,8]tricosa-1(21),11(23),12,14,18(22),19-hexaene-6-carboxylate]
- ring closure, isolated yield (from Cc1cccc(C)c1-c1cc(O[C@@H]2CCN(C(=O)OC(C)(C)C)C[C@H]2N)nc(NS(=O)(=O)c2cccc(C(=O)O)c2)n1, amide bond, 13-membered ring, COMU/DIEA, DMF, 19.4 mM, 19.0 h): 34%

- pEC50 ([4]; Enteroid Assay A): 5.52 to 6.00
Compound: Cc1cccc(C)c1-c1cc2nc(n1)NS(=O)(=O)c1cccc(c1)C(=O)NCC1(CCN(C(=O)OC(C)(C)C)CC1)CO2 [Compound 81, tert-Butyl 6-(2,6-dimethylphenyl)-2,2,14-trioxo-spiro[9-oxa-2λ^6-thia-3,5,13,20-tetrazatricyclo[13.3.1.14,8]icosa-1(19),4(20),5,7,15,17-hexaene-11,4′-piperidine]-1′-carboxylate]
- ring closure, isolated yield (from Cc1cccc(C)c1-c1cc(Cl)nc(NS(=O)(=O)c2cccc(C(=O)NCC3(CO)CCN(C(=O)OC(C)(C)C)CC3)c2)n1, snar bond, 14-membered ring, NaH, THF, 5.0 mM, 25.0 °C, 3.0 h): 66%

- HBE Activity at 10 μM (%) [3]: + (+ is <30%)
Compound: Cc1cccc(C)c1-c1cc2nc(n1)NS(=O)(=O)c1cccc(c1)C(=O)N[C@@H](CC(C)(C)C)CO2 [Compound 121]

- pEC50 [3]: > 6.00
Compound: Cc1cccc(C)c1-c1cc2nc(n1)NS(=O)(=O)c1cccc(c1)C(=O)NC(C(CC(C)C)c1cccc(C(C)(C)C)c1)CO2 (stereo not drawn) [Compound 209]

- pEC50 [3]: > 6.00
- Emax [3]: 30 to 60%
Compound: Cc1cccc(C)c1-c1cc2nc(n1)NS(=O)(=O)c1cccc(c1)C(=O)NC(C(CC(C)C)c1ccc(C(C)(C)C)cc1)CO2 (stereo not drawn) [Compound 210]

- pEC50 [3]: > 6.00
- Emax [3]: > 60%
Compound: Cc1cccc(C)c1-c1cc2nc(n1)NS(=O)(=O)c1cccc(c1)C(=O)NC(C(CC(C)C)c1cccc(C(C)(C)C)c1)CO2 (stereo not drawn) [Compound 211]

- pEC50 [3]: > 6.00
- Emax [3]: > 60%
Compound: Cc1cccc(CC2CCCCC2)c1-c1cc2nc(n1)NS(=O)(=O)c1cccc(c1)C(=O)N[C@H](CC(C)(C)C)CO2 [Compound 299]
